Assay results published in ChEMBL document CHEMBL1144331, “Uric acid may inhibit glucose-induced insulin secretion via binding to an essential arginine residue in rat pancreatic beta-cells” (2005).

Assays:
Rattus norvegicus [1] = assay: Insulin release in rat pancreatic beta-cells after 15 minutes of administration of the NH4-salt of compound at 1 mM was measured; type: functional
Rattus norvegicus [2] = assay: Insulin release in rat pancreatic beta-cells after 15 minutes of administration of the K-salt of compound at 1 mM was measured; type: functional
Rattus norvegicus [3] = species on record: Rattus norvegicus; assay: Acid dissociation constant was determined
Rattus norvegicus [4] = assay: Insulin release in rat pancreatic beta-cells after 15 minutes of administration of the Na-salt of compound at 1 mM was measured; type: functional
Rattus norvegicus [5] = assay: Insulin release in rat pancreatic beta-cells after 15 minutes of administration at 1 mM was measured; type: functional
Rattus norvegicus [6] = assay: Insulin release in rat pancreatic beta-cells (PBS-rinsing of the islets) after 15 minutes of administration at 1 mM was measured; type: functional

Oc1nc(O)c2nc(O)[nH]c2n1 [URIC ACID] was tested, and the Insulin release (Rattus norvegicus [1]) was 1.66 ng/islet/h, the Insulin release (Rattus norvegicus [2]) was 1.68 ng/islet/h and the pKa (Rattus norvegicus [3]) was 5.4. The Insulin release (Rattus norvegicus [4]) was 1.7 ng/islet/h and the Insulin release (Rattus norvegicus [5]) was 1.65 ng/islet/h.
Molecule Cn1c(O)nc2c1C(=O)NC(O)N2.NC(N)N (stereo not drawn) has an Insulin release (Rattus norvegicus [5]) of 8.55 ng/islet/h.
Work on CN1C(=O)c2nc(O)[nH]c2NC1O.NC(N)N (stereo not drawn) yielded an Insulin release (Rattus norvegicus [5]) of 8.75 ng/islet/h.
O=c1[nH]c(=O)c2nc[nH]c2[nH]1 [XANTHINE] gave a pKa (Rattus norvegicus [3]) of 7.7, an Insulin release (Rattus norvegicus [5]) of 3.5 ng/islet/h and an Insulin release (Rattus norvegicus [6]) of 7.72 ng/islet/h.
Work on O=C1NC(=O)C(O)(O)C(=O)N1 yielded an Insulin release (Rattus norvegicus [5]) of 0.39 ng/islet/h.
Molecule O=c1[nH]cnc2nc[nH]c12 [HYPOXANTHINE] has an Insulin release (Rattus norvegicus [5]) of 8.44 ng/islet/h.
O=C(O)c1nc(=O)[nH]c(=O)[nH]1 [OTERACIL] was tested, and the Insulin release (Rattus norvegicus [5]) was 8.26 ng/islet/h.
O=c1[nH]c(=O)c2nn[nH]c2[nH]1 showed an Insulin release (Rattus norvegicus [5]) of 7.92 ng/islet/h.
With Cn1c(O)nc2[nH]c(=O)[nH]c(=O)c21 the Insulin release (Rattus norvegicus [5]) was 8.04 ng/islet/h.
In the case of Cn1c(=O)[nH]c2[nH]c(=O)[nH]c2c1=O, the Insulin release (Rattus norvegicus [5]) is reported as 7.92 ng/islet/h.
Cn1c(=O)c2[nH]c(=O)[nH]c2n(C)c1=O showed an Insulin release (Rattus norvegicus [5]) of 8.48 ng/islet/h.
NC(N)N.O=C1NC(O)Nc2[nH]c(O)nc21 (stereo not drawn) was tested, and the Insulin release (Rattus norvegicus [5]) was 8.39 ng/islet/h.
